Assay results as given in patent US9862726B2, “Opioid receptor modulating oxabicyclo[2.2.2]octane morphinans” (PURDUE PHARMA L.P., priority 2013, dated 2018).

Tests used:
[1] = biological target: T1, μ-opioid receptor (Homo sapiens (Human), UniProt P35372); assay: μ-opioid receptor radioligand dose-displacement binding assay (HEK-293 cells)
Experimental: Radioligand dose-displacement binding assays for μ-opioid receptors used 0.3 nM [^3H]-diprenorphine (Perkin Elmer, Shelton, Conn.), with […] membrane protein/well in a final volume of 500 μl binding buffer (10 mM MgCl2, 1 mM EDTA, 5% DMSO, 50 mM HEPES, pH 7.4). Reactions were carried out in the absence or presence of increasing concentrations of unlabeled naloxone. All reactions were conducted in 96-deep well polypropylene plates for 2 hours at room temperature. Binding reactions were terminated by rapid filtration onto 96-well Unifilter GF/C filter plates (Perkin Elmer, Shelton, Conn.), presoaked in 0.5% polyethylenimine using a 96-well tissue harvester (Perkin Elmer, Shelton, Conn.) followed by performing three filtration washes with 500 μl of ice-cold binding buffer. Filter plates were subsequently dried at 50° C. for 2-3 hours. BetaScint scintillation cocktail (Perkin Elmer, Shelton, Conn.) was added (50 μl/well), and plates were counted using a Packard Top-Count for 1 min/well. The data were analyzed using the one-site competition curve fitting functions in GraphPad PRISM™ v. 3.0 or higher (San Diego, Calif.), or an in-house function for one-site competition curve-fitting.
(§1) In TABLE 3, binding affinity of certain Compounds of the Invention to the μ- and κ-opioid receptors was determined as described above using HEK-293 cells.

[2] = biological target: recombinant human kappa opioid receptor (κ) (Homo sapiens (Human), UniProt P41145); assay: κ-opioid receptor radioligand dose-displacement binding assay (HEK-293 cells)
Experimental: Membranes from HEK-293 cells, CHO cells or U-2 OS cells expressing the recombinant human kappa opioid receptor (κ) were prepared by lysing cells in ice cold hypotonic buffer (2.5 mM MgCl2, 50 mM HEPES, pH 7.4) (10 mL/10 cm dish) followed by homogenization with a tissue grinder/Teflon pestle. Membranes from a cell line naturally expressing kappa opioid receptor can also be used. Membranes were collected by centrifugation at 30,000×g for 15 min at 4° C. and pellets were resuspended in hypotonic buffer to a final concentration of 1-3 mg/mL. Protein concentrations were determined using the BioRad protein assay reagent with bovine serum albumen as standard. Aliquots of κ receptor membranes were stored at −80° C.
Radioligand dose displacement assays used 0.4 nM [^3H]-U69,593 (GE Healthcare, Piscataway, N.J.; 40 Ci/mmole) with 15 μg membrane protein (recombinant κ opioid receptor expressed in HEK 293 cells; in-house prep) in a final volume of 200 μl binding buffer (5% DMSO, 50 mM Trizma base, pH 7.4). Non-specific binding was determined in the presence of 10 μM unlabeled naloxone or U69,593. All reactions were performed in 96-well polypropylene plates for 1 hour at a temperature of about 25° C. Binding reactions were terminated by rapid filtration onto 96-well Unifilter GF/C filter plates (Perkin Elmer, Shelton, Conn.) presoaked in 0.5% polyethylenimine (Sigma). Harvesting was performed using a 96-well tissue harvester (Perkin Elmer, Shelton, Conn.) followed by five filtration washes with 200 μl ice-cold binding buffer. Filter plates were subsequently dried at 50° C. for 1-2 hours. Fifty μl/well scintillation cocktail (Perkin Elmer, Shelton, Conn.) was added and plates were counted in a Packard Top-Count for 1 min/well.
as §1

[3] = biological target: T1, μ-opioid receptor; assay: μ-opioid receptor [35S]GTPγS functional assay (HEK-293 cells); assay type: biochemical; conditions: for Emax: HEK-293 cells, relative to DAMGO
Experimental: (§2) [^35S]GTPγS functional assays were conducted using freshly thawed μ-receptor membranes prepared in-house from a cell line expressing recombinant μ opioid receptor in a HEK-293, CHO or U-2 OS cell background, or purchased from a commercial source (Perkin Elmer, Shelton, Conn.; or DiscovRx, Fremont, Calif.). Assay reactions were prepared by sequentially adding the following reagents to binding buffer (100 mM NaCl, 10 mM MgCl2, 20 mM HEPES, pH 7.4) on ice (final concentrations indicated): membrane protein (0.026 mg/mL), saponin ([…]), GDP ([…]) and [^35S]GTPγS (0.20 nM; Perkin Elmer, Shelton, Conn.). The prepared membrane solution (190 μl/well) was transferred to 96-shallow well polypropylene plates containing 10 μl of 20× concentrated stock solutions of the agonist [D-Ala^2, N-methyl-Phe^4 Gly-ol^5]-enkephalin (DAMGO) prepared in dimethyl sulfoxide (DMSO). Plates were incubated for 30 min at about 25° C. with shaking. Reactions were terminated by rapid filtration onto 96-well Unifilter GF/B filter plates (Perkin Elmer, Shelton, Conn.) using a 96-well tissue harvester (Perkin Elmer, Shelton, Conn.) followed by three filtration washes with 200 μl of ice-cold wash buffer (10 mM NaH2PO4, 10 mM Na2HPO4, pH 7.4). Filter plates were subsequently dried at 50° C. for 2-3 hours. BetaScint scintillation cocktail (Perkin Elmer, Shelton, Conn.) was added (50 μl/well) and plates were counted using a Packard Top-Count for 1 min/well. Data were analyzed using the sigmoidal dose-response curve fitting functions in GraphPad PRISM v. 3.0, or an in-house function for non-linear, sigmoidal dose-response curve-fitting. [^35S]GTPγS functional assays can also be conducted using freshly thawed μ-receptor membranes prepared from a cell line expressing recombinant μ opioid receptor in a CHO-K1 cell background.
(§3) μ GTP EC50 is the concentration of a compound providing 50% of the maximal response for the compound at a μ-opioid receptor.
(§4) μ GTP Emax (%) is the maximal effect elicited by a compound relative to the effect elicited by DAMGO, a standard μ agonist.
(§5) In TABLE 4, activity response of certain Compounds of the Invention to the μ- and κ-opioid receptors was determined as described above for functional assays using HEK-293 cells.

[4] = biological target: T2, κ-opioid receptor (Homo sapiens (Human), UniProt P41145); assay: κ-opioid receptor [35S]GTPγS functional assay (HEK-293 cells); assay type: biochemical; conditions: for Emax: HEK-293 cells, relative to U69,593
Experimental: (§6) Functional [^35S]GTPγS binding assays were conducted as follows. κ opioid receptor membrane solution was prepared by sequentially adding final concentrations of 0.026 μg/μl κ membrane protein (in-house), 10 μg/mL saponin, 3 μM GDP and 0.20 nM [^35S]GTPγS to binding buffer (100 mM NaCl, 10 mM MgCl2, 20 mM HEPES, pH 7.4) on ice. The prepared membrane solution (190 μl/well) was transferred to 96-shallow well polypropylene plates containing 10 μl of 20× concentrated stock solutions of agonist prepared in DMSO. Plates were incubated for 30 min at a temperature of about 25° C. with shaking. Reactions were terminated by rapid filtration onto 96-well Unifilter GF/B filter plates (Perkin Elmer, Shelton, Conn.) using a 96-well tissue harvester (Packard) and followed by three filtration washes with 200 μl ice-cold binding buffer (10 mM NaH2PO4, 10 mM Na2HPO4, pH 7.4). Filter plates were subsequently dried at 50° C. for 2-3 hours. Fifty μl/well scintillation cocktail (Perkin Elmer, Shelton, Conn.) was added and plates were counted in a Packard Top-Count for 1 min/well.
(§7) κ GTP EC50 is the concentration of a compound providing 50% of the maximal response for the compound at a κ receptor.
(§8) κ GTP Emax (%) is the maximal effect elicited by a compound relative to the effect elicited by U69,593.
as §5

[5] = biological target: T2, κ-opioid receptor; assay: κ-opioid receptor functional assay (U-2 OS cells); assay type: biochemical; conditions: for Emax: U-2 OS cells, relative to U69,593
Experimental: as §6, §7, §8
The following TABLE 5 provides results on the activity response of certain Compounds of the Invention at the μ- and κ-opioid receptors determined as described above using U-2 OS cells.

[6] = biological target: T1, μ-opioid receptor; assay: μ-opioid receptor functional assay (U-2 OS cells); assay type: biochemical; conditions: for Emax: U-2 OS cells, relative to DAMGO
Experimental: as §2, §3, §4

COc1ccc2c(c1)[C@]13CCN(CC4CC4)[C@H](C2)[C@]12CC[C@](N)(C3)C(=O)O2 [Compound 3, (4bR,6S,8aS,9R)-6-amino-11-(cyclopropylmethyl)-3-methoxy-5,6,7,8,9,10-hexahydro-9,4b-(epiminoethano)-8a,6-(epoxymethano)phenanthren-15-one]
Ki [1]: 1330 ± 313 nM | Ki [2]: 248 ± 54.6 nM | EC50 [3]: 2980 ± 706 nM | Emax [3]: 48.3 ± 6.01% | EC50 [4]: 3010 ± 274 nM | Emax [4]: 79.7 ± 10.3% | EC50 [5]: 807 ± 83.2 nM | Emax [5]: 99 ± 1.73%

COc1ccc2c(c1)[C@]13CCN(CC4CC4)[C@H](C2)[C@]12CC[C@](O)(C3)C(=O)O2 [Compound 4, (4bR,6S,8aS,9R)-11-(cyclopropylmethyl)-6-hydroxy-3-methoxy-5,6,7,8,9,10-hexahydro-9,4b-(epiminoethano)-8a,6-(epoxymethano)phenanthren-15-one]
Ki [1]: 6350 ± 1020 nM | Ki [2]: 251 ± 62.9 nM | EC50 [3]: > 20000 nM | Emax [3]: 1% | EC50 [4]: 2850 ± 1190 nM | Emax [4]: 92 ± 6.03% | EC50 [5]: 1110 ± 159 nM | Emax [5]: 105 ± 7.02%

O=C1O[C@@]23CC[C@]1(O)C[C@@]21CCN(CC2CC2)[C@@H]3Cc2ccc(O)cc21 [Compound 9, (4bR,6S,8aS,9R)-11-(cyclopropylmethyl)-3,6-dihydroxy-5,6,7,8,9,10-hexahydro-9,4b-(epiminoethano)-8a,6-(epoxymethano)phenanthren-15-one]
Ki [1]: 10.1 ± 2.46 nM | Ki [2]: 0.95 ± 0.29 nM | EC50 [3]: > 20000 nM | Emax [3]: 0.5 ± 0.5% | EC50 [4]: 54.7 ± 7.26 nM | Emax [4]: 54 ± 3.89% | EC50 [6]: 9.17 ± 1.18 nM | Emax [6]: 63.7 ± 5.21% | EC50 [5]: 5.23 ± 0.38 nM | Emax [5]: 91.7 ± 4.84%

N[C@]12CC[C@@]3(OC1)[C@H]1Cc4ccc(O)cc4[C@@]3(CCN1CC1CC1)C2 [Compound 17, (4bR,6S,8aS,9R)-6-amino-11-(cyclopropylmethyl)-5,6,7,8,9,10-hexahydro-9,4b-(epiminoethano)-8a,6-(epoxymethano)phenanthren-3-ol]
Ki [1]: 0.79 ± 0.19 nM | Ki [2]: 0.096 ± 0.026 nM | EC50 [3]: > 20000 nM | Emax [3]: 0% | EC50 [4]: 0.48 ± 0.02 nM | Emax [4]: 75 ± 5.03% | EC50 [6]: 0.65 ± 0.078 nM | Emax [6]: 77 ± 1% | EC50 [5]: 0.3 ± 0.032 nM | Emax [5]: 106 ± 6.84%

COc1ccc2c(c1)[C@]13CCN(CC4CC4)[C@H](C2)[C@]12CC[C@@](NC(=O)C(C)(C)C)(CO2)C3 [Compound 21, N-((4bR,6S,8aS,9R)-11-(cyclopropylmethyl)-3-methoxy-5,6,7,8,9,10-hexahydro-9,4b-(epiminoethano)-8a,6-(epoxymethano)phenanthren-6-yl)pivalamide]
Ki [1]: 265 ± 77.5 nM | Ki [2]: 0.33 ± 0.023 nM | EC50 [3]: 359 ± 128 nM | Emax [3]: 35 ± 4.04% | EC50 [4]: 3.25 ± 0.37 nM | Emax [4]: 97.3 ± 1.33% | EC50 [6]: 86.8 ± 2.57 nM | Emax [6]: 92.7 ± 2.91% | EC50 [5]: 1.12 ± 0.056 nM | Emax [5]: 111 ± 3.28%

CC(C)(C)C(=O)N[C@]12CC[C@@]3(OC1)[C@H]1Cc4ccc(O)cc4[C@@]3(CCN1CC1CC1)C2 [Compound 26, N-((4bR,6S,8aS,9R)-11-(cyclopropylmethyl)-3-hydroxy-5,6,7,8,9,10-hexahydro-9,4b-(epiminoethano)-8a,6-(epoxymethano)phenanthren-6-yl)pivalamide]
Ki [1]: 0.056 ± 0.01 nM | Ki [2]: 0.059 ± 0.01 nM | EC50 [3]: > 20000 nM | Emax [3]: 4 ± 1.53% | EC50 [6]: 0.28 ± 0.01 nM | Emax [6]: 89 ± 3.06% | EC50 [5]: 0.031 nM | Emax [5]: 91.7 ± 2.73%

O=C(N[C@]12CC[C@@]3(OC1)[C@H]1Cc4ccc(O)cc4[C@@]3(CCN1CC1CC1)C2)c1ccccc1 [Compound 27, N-((4bR,6S,8aS,9R)-11-(cyclopropylmethyl)-3-hydroxy-5,6,7,8,9,10-hexahydro-9,4b-(epiminoethano)-8a,6-(epoxymethano)phenanthren-6-yl)benzamide]
Ki [1]: 0.019 ± 0.01 nM | Ki [2]: 0.062 ± 0.012 nM | EC50 [3]: 0.58 ± 0.18 nM | Emax [3]: 34.7 ± 1.45% | EC50 [4]: 0.14 nM | Emax [4]: 94.2 ± 2.12% | EC50 [6]: 0.037 ± 0.01 nM | Emax [6]: 112 ± 3.51% | EC50 [5]: 0.028 nM | Emax [5]: 93.3 ± 3.84%
